Results as given in ChEMBL document CHEMBL3763124, “N-Benzylbenzamides: A Novel Merged Scaffold for Orally Available Dual Soluble Epoxide Hydrolase/Peroxisome Proliferator-Activated Receptor γ Modulators” (J Med Chem, 2016).
In brackets after ≈: the same amount, converted by molar mass. Activity calls are given as the source filed them. The calls are words filed in the database; no cut-off is given here.

Experiments:
[1] = Apparent volume of distribution during terminal phase in RjOrl:Swiss (CD-1) mouse plasma at 30 mg/kg, po; type: ADME, organism-based; details: read-out: Vz/F
[2] = Drug level in supernatant of African green monkey COS7 cells treated with Ethyl 2-Ethyl 3-[4-(N-(4-methoxy(2-trifluoromethyl)benzyl)-benzamide)]propanoate at 10 uM after 12 hrs by HPLC analysis; type: ADME, cell-based; details: chlorocebus aethiops, cos-7, 12 h
[3] = tested on: Mus musculus; test: Upregulation of PPARalpha gene expression in C57BL/6JRj mouse liver at 30 mg/kg/day, po administered with drinking water after 2 weeks by qPCR method; type: functional, organism-based
[4] = molecular target: T1, Peroxisome proliferator-activated receptor delta (Homo sapiens, UniProt Q03181); test: Transactivation of human PPARdelta expressed in African green monkey COS7 cells incubated overnight by dual-glo luciferase reporter gene assay; type: cell-based; details: cos-7
T1 sequence (Q03181 whole entry): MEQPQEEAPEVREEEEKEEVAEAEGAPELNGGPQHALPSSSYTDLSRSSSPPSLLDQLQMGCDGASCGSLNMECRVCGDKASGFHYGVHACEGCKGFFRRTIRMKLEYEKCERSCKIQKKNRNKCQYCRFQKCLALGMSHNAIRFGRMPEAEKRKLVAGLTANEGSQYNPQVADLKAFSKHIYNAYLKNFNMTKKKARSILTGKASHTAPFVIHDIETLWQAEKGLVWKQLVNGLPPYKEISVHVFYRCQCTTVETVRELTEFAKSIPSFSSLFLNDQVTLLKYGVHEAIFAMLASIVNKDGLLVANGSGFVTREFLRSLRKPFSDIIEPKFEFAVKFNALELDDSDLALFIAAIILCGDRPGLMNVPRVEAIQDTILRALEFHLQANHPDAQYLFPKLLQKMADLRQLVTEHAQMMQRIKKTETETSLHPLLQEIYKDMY

[5] = molecular target: T2, Peroxisome proliferator-activated receptor alpha (Homo sapiens) (UniProt Q07869); test: Transactivation of human PPARalpha expressed in African green monkey COS7 cells at 10 uM incubated overnight by dual-glo luciferase reporter assay; type: cell-based; details: COS-7
T2 sequence (whole entry): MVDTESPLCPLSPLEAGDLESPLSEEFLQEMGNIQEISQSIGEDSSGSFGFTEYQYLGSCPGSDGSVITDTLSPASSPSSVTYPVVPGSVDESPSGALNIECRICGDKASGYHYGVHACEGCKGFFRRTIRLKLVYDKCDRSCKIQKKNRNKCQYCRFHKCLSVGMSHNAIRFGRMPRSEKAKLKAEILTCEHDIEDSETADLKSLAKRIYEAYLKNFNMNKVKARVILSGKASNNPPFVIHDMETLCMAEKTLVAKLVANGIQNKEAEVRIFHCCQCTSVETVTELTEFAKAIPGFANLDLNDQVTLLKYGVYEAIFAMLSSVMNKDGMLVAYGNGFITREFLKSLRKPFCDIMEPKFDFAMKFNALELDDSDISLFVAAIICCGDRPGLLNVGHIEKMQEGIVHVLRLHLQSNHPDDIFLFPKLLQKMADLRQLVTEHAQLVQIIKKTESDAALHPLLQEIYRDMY

[6] = tested on: Mus musculus; test: Upregulation of LXRalpha regulated ABCA1 expression in C57BL/6JRj mouse liver at 30 mg/kg/day, po administered with drinking water measured after 2 weeks by qPCR method; type: functional, organism-based
[7] = Apparent oral clearance in RjOrl:Swiss (CD-1) mouse plasma at 30 mg/kg; type: ADME, organism-based
[8] = Solubility of the compound in water by microplate reader analysis; type: physicochemical
[9] = Cmax in RjOrl:Swiss (CD-1) mouse plasma at 30 mg/kg, po; type: ADME, organism-based; parameters: dose 30 mg/kg, route oral
[10] = tested on: HepG2; test: Cytotoxicity against human HepG2 cells assessed as cell viability up to 30 uM after 48 hrs by WST-1 assay; type: cell-based; details: hepg2, 48 h
[11] = AUC (0 to infinity) in RjOrl:Swiss (CD-1) mouse plasma at 30 mg/kg, po; type: ADME, organism-based; parameters: dose 30 mg/kg, time infinity, route oral
[12] = tested on: Mus musculus; test: In vivo transactivation of PPARgamma in C57BL/6JRj mouse assessed as increase in PGC-1alpha expression in liver at 30 mg/kg/day, po administered with drinking water measured after 2 weeks by qPCR method; type: functional, organism-based
[13] = tested on: Mus musculus; test: In vivo transactivation of PPARgamma in C57BL/6JRj mouse assessed as increase in LXRalpha expression in liver at 30 mg/kg/day, po administered with drinking water measured after 2 weeks by qPCR method; type: functional, organism-based
[14] = tested on: Mus musculus; test: In vivo transactivation of PPARgamma in C57BL/6JRj mouse assessed as increase in CD36 expression in liver at 30 mg/kg/day, po administered with drinking water measured after 2 weeks by qPCR method; type: functional, organism-based
[15] = tested on: Mus musculus; test: Upregulation of PPARgamma gene expression in C57BL/6JRj mouse liver at 30 mg/kg/day, po administered with drinking water measured after 2 weeks by qPCR method; type: functional, organism-based
[16] = tested on: Mus musculus; test: Upregulation of LXRalpha regulated ApoE expression in C57BL/6JRj mouse liver at 30 mg/kg/day, po administered with drinking water measured after 2 weeks by qPCR method; type: functional, organism-based
[17] = tested on: Mus musculus; test: In vivo transactivation of PPARgamma in C57BL/6JRj mouse assessed as increase in sEH expression in liver at 30 mg/kg/day, po administered with drinking water after 2 weeks by qPCR method; type: functional, organism-based
[18] = molecular target: Free fatty acid receptor 1 (Mus musculus) (UniProt Q76JU9); test: Partial agonist activity at mouse free fatty acid receptor 1 expressed in HEK293 cells assessed as inositol phosphate 1 accumulation incubated for 30 mins; type: functional, cell-based
Sequence of Free fatty acid receptor 1 (Mus musculus) (Q76JU9 whole entry): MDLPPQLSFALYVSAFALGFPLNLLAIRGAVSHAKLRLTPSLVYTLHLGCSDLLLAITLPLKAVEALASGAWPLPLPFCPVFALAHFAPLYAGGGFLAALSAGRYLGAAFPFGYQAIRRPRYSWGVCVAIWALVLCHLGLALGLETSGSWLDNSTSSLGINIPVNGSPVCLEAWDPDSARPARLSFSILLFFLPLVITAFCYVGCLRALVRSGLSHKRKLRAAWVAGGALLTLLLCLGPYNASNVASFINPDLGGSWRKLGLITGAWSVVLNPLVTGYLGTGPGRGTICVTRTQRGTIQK

[19] = molecular target: Free fatty acid receptor 1 (Homo sapiens) (UniProt O14842); test: Partial agonist activity at human free fatty acid receptor 1 expressed in HEK293 cells assessed as inositol phosphate 1 accumulation incubated for 30 mins; type: functional, cell-based
Sequence of Free fatty acid receptor 1 (Homo sapiens) (O14842 whole entry): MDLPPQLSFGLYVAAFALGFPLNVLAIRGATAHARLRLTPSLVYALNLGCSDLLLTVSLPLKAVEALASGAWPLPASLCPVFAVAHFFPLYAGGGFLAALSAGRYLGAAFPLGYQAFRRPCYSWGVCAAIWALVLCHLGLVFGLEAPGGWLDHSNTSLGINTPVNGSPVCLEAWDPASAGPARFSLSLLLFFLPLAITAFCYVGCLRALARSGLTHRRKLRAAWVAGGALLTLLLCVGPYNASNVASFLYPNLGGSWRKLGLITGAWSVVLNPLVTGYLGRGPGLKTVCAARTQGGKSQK

## CCC(Cc1ccc(C(=O)NCc2ccc(OC)cc2C(F)(F)F)cc1)C(=O)O (centres undefined)
[1]
  Vd/F: 2 L/kg
[2]
  Drug metabolism: metabolite_detected
[3]
  Activity: Active
[4]
  EC50: Not Active
[5]
  Activity: 29%
[6]
  Activity: inactive
[7]
  CL/F: 5 mL/min/kg
[8]
  solubility: 375 µM (≈ 154 µg/mL)
[9]
  Cmax: 29100 ng/mL
[10]
  Activity: Non-toxic
[11]
  AUC(0-inf): 94400 ng·h/mL
[12]
  Activity: Active
[13]
  Activity: Active
[14]
  Activity: Active
[15]
  Activity: Active
[16]
  Activity: inactive
[17]
  Activity: Active
[18]
  Activity: Active
[19]
  Activity: Active
